In publication PMC4503722, “Novel Phenotypic Outcomes Identified for a Public Collection of Approved Drugs from a Publicly Accessible Panel of Assays” (PLoS ONE, 2015):

How the values were obtained:
[1] = test system: alkaline phosphatase (ALP) activity in C2C12 cells; format: cell-based; settings: concentration response; for WntCondMedia_Alk Phos C2C12 IC50/EC50: assay number 6
HeLa cells = assay: cells; format: cell-based; settings: for Hela CellCycMod PI 2N IC50/EC50: assay number 14; for Hela CellCycMod PI S Phase IC50/EC50: assay number 15; for Hela CellCycMod PI 4N IC50/EC50: assay number 16; for Hela CellCycMod PI MI IC50/EC50: assay number 17; for Hela CellCycMod PI Cell Number IC50/EC50: assay number 18
[2] = test system: endothelial tube formation in co-cultures of ECFCs and ADSCs treated with VEGF; assay: cells; format: cell-based, human
[3] = test system: nuclear β-catenin in C2C12 cells; assay: cells; format: cell-based; settings: concentration response; for WntCondMedia_bCatenin C2C12 IC50/EC50: assay number 5
[4] = test system: ECFC/ADSC co-culture cell nuclei number
hp70S6K1 (RPS6KB1) = molecular target: T1, hp70S6K1 (RPS6KB1) (Homo sapiens, UniProt P23443); assay: Cerep LANCE kinase assay hp70S6K1 (S1 assay 31); format: biochemical; settings: assay number 31
T1 construct: purchased Cerep (LANCE kinase assay platform, contract assay)

hGSK3b = molecular target: T2, hGSK3b (Homo sapiens, UniProt P49841); assay: Cerep LANCE kinase assay hGSK3b (S1 assay 34); format: biochemical; settings: assay number 34
T2 construct: purchased Cerep (LANCE kinase assay platform, contract assay)

hKDR = molecular target: T3, hKDR (Homo sapiens, UniProt P35968); assay: Cerep LANCE kinase assay hKDR (S1 assay 32); format: biochemical; settings: assay number 32
T3 construct: purchased Cerep (LANCE kinase assay platform, contract assay)

hFLT3 = molecular target: T4, hFLT3 (Homo sapiens, UniProt P36888); assay: Cerep LANCE kinase assay hFLT3 (S1 assay 35); format: biochemical; settings: assay number 35
T4 construct: purchased Cerep (LANCE kinase assay platform, contract assay)

hJAK2 = molecular target: T5, hJAK2 (Homo sapiens, UniProt O60674); assay: Cerep LANCE kinase assay hJAK2 (S1 assay 33); format: biochemical; settings: assay number 33
T5 construct: purchased Cerep (LANCE kinase assay platform, contract assay)

INS-1E cells = assay: cells; format: cell-based, rat; settings: 5 mM glucose;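 also: secreted insulin quantified by homogeneous immunoassay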
SW480 = assay: cells; format: cell-based; settings: assay number 24; basal
RKO = assay: cells; format: cell-based; settings: assay number 29; basal
Colo320 = assay: cells; format: cell-based; settings: assay number 27; basal
SNU-C1 = assay: cells; format: cell-based; settings: assay number 30; basal
HT-29 = assay: cells; format: cell-based; settings: assay number 28; basal
[5] = test system: HCT116 cells treated with a GSK3β inhibitor; assay: cells; format: cell-based; settings: assay number 26; GSK3b inhibitor pretreated
HCT116 = assay: cells; format: cell-based; settings: assay number 25; basal
DLD-1 = assay: cells; format: cell-based; settings: assay number 23; basal

T1 sequence (P23443 whole entry): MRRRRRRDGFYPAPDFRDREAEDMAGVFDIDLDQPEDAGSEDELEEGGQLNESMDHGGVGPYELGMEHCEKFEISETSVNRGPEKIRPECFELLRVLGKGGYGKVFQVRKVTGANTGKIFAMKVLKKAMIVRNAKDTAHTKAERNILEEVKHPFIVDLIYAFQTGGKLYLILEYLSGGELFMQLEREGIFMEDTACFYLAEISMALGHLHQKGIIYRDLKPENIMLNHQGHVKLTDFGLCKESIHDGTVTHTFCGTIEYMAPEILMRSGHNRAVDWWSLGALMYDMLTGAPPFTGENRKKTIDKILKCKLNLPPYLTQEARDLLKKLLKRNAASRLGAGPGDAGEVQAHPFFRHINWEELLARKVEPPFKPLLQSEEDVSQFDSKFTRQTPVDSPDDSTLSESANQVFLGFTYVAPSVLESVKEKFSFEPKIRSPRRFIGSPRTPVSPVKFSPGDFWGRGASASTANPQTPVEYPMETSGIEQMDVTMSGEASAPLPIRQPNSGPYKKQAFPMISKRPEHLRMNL
T2 sequence (P49841 whole entry): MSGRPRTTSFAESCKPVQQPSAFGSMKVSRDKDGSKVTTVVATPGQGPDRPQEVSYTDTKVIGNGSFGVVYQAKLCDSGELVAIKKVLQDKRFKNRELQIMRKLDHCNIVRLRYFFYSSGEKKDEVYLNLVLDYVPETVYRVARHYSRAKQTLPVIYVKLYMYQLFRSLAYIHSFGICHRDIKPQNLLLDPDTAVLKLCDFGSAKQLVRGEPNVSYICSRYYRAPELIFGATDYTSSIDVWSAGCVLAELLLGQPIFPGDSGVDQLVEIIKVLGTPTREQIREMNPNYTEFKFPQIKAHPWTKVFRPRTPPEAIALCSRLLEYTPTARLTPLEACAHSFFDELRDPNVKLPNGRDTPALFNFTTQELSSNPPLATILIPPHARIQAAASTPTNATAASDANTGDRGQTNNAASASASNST
T4 sequence (P36888 27-993): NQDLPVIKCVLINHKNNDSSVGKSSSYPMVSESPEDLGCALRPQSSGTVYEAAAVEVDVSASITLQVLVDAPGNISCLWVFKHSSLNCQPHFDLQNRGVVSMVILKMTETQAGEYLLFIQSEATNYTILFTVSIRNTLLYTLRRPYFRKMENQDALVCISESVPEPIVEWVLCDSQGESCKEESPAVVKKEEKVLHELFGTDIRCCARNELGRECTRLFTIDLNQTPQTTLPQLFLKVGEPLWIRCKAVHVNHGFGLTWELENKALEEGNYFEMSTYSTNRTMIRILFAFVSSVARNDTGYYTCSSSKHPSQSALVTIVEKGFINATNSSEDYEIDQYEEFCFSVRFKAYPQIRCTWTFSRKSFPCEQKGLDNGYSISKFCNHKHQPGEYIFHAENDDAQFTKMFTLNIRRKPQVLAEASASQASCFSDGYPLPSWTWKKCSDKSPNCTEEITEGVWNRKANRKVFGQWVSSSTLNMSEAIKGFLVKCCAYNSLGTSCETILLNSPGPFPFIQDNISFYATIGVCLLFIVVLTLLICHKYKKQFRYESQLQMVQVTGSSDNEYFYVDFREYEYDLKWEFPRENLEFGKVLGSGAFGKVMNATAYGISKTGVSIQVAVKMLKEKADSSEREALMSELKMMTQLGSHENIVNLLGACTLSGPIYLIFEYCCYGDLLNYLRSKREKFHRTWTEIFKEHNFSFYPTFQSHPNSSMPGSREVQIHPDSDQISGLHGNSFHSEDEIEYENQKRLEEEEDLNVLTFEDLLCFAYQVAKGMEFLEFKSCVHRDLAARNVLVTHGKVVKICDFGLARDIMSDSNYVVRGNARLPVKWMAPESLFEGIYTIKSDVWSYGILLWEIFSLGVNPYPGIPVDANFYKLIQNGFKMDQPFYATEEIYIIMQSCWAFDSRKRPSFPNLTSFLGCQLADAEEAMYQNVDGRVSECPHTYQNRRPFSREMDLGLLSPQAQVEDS
T3 sequence (P35968 20-1356): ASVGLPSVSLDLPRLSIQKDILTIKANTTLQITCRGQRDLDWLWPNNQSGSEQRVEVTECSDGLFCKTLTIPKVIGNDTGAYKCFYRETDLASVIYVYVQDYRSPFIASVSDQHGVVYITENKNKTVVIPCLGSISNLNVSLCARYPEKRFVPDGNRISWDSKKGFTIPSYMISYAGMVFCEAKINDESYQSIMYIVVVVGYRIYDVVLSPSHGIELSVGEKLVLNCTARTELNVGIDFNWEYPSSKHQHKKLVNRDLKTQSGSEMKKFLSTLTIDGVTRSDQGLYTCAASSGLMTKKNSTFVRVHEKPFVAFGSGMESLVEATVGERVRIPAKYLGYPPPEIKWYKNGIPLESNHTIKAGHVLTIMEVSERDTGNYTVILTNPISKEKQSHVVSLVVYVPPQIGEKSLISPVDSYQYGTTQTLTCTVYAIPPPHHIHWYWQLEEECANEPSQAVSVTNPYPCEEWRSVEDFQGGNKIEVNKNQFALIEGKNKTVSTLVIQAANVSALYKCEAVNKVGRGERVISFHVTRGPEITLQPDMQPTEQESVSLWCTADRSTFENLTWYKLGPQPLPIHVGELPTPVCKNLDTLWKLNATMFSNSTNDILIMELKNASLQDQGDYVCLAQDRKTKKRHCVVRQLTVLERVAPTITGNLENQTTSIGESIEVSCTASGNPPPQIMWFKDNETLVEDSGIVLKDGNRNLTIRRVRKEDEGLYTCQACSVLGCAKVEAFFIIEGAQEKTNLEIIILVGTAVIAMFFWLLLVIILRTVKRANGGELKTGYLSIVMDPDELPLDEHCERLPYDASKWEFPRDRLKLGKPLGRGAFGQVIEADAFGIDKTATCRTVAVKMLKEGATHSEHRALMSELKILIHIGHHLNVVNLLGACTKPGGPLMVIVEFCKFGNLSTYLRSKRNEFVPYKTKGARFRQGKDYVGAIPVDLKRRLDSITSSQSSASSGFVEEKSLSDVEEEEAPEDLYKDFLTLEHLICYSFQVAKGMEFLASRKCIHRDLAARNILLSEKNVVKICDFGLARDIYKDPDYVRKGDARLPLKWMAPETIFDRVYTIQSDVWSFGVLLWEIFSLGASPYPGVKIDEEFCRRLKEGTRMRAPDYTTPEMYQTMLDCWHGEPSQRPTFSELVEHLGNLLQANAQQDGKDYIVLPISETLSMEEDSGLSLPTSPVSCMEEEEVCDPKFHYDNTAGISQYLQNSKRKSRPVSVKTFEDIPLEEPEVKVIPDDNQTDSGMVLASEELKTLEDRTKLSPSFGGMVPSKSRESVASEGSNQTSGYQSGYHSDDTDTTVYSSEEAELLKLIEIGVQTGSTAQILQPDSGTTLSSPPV
T5 sequence (O60674 whole entry): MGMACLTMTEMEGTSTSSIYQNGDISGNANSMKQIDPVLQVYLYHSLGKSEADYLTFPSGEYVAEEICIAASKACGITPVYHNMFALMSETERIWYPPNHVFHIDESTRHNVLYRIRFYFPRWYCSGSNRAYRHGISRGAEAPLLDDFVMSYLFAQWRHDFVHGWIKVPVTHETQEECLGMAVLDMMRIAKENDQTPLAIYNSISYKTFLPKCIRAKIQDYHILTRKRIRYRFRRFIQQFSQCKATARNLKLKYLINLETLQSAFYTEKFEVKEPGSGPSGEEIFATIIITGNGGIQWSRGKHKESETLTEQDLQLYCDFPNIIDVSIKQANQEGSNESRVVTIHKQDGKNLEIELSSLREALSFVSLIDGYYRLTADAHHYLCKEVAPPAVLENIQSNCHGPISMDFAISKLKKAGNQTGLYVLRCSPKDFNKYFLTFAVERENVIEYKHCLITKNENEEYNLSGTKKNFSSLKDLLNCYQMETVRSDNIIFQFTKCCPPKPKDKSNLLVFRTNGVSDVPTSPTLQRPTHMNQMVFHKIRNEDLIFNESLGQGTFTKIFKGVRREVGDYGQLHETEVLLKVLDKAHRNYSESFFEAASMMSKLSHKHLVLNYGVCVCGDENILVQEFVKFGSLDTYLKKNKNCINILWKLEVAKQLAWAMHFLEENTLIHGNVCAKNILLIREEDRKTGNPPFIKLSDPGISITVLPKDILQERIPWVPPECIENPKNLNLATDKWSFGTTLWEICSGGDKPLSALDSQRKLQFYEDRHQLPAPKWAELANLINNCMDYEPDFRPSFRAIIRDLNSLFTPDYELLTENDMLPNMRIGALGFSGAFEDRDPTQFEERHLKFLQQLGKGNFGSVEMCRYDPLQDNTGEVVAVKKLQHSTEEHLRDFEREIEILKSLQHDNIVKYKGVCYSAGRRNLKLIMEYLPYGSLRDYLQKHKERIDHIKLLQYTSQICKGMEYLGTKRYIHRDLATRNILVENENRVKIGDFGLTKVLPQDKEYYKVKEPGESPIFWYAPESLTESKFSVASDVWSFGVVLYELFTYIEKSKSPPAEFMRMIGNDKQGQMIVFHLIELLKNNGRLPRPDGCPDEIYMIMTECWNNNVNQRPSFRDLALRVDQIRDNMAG

| Structure (SMILES) | WntCondMedia_Alk Phos C2C12 IC50/EC50 [1] [µM] | Hela CellCycMod PI 2N IC50/EC50 (HeLa cells; 2N) [µM] | Hela CellCycMod PI S Phase IC50/EC50 (HeLa cells) [µM] | Hela CellCycMod PI 4N IC50/EC50 (HeLa cells; 4N) [µM] | Hela CellCycMod PI MI IC50/EC50 (HeLa cells; MI) [µM] | Hela CellCycMod PI Cell Number IC50/EC50 (HeLa cells) [µM] | VEGF_ADSC\ECFC Angio CD31 TubeArea IC50/EC50 [2] [µM] | WntCondMedia_bCatenin C2C12 IC50/EC50 [3] [µM] | VEGF_ADSC\ECFC Angio Hoechst NucArea IC50/EC50 [4] [µM] | also measured |
| --- | --- | --- | --- | --- | --- | --- | --- | --- | --- | --- |
| CCCCCCCCCCCCNCCNCCNCC(=O)O [NCGC00274269-01] | > 20 | > 10 | > 10 | > 10 | > 10 | > 10 | 6.0404 | > 20 | > 10 | – |
| CCC1=C[C@@H]2CN(C1)Cc1c([nH]c3ccccc13)[C@@](C(=O)OC)(c1cc3c(cc1OC)N(C)[C@H]1[C@@](O)(C(=O)OC)[C@H](OC(C)=O)[C@]4(CC)C=CCN5CC[C@]31[C@@H]54)C2.O=C(O)C(O)C(O)C(=O)O.O=C(O)C(O)C(O)C(=O)O [NCGC00263568-01] | 0.0101 | – | – | – | – | – | 0.0055 | 0.0089 | > 10 | hp70S6K1 LANCE IC50/EC50 (hp70S6K1 (RPS6KB1)): > 20 µM; hGSK3b LANCE IC50/EC50 (hGSK3b): > 20 µM; hKDR LANCE IC50/EC50 (hKDR): > 20 µM; hFLT3 LANCE IC50/EC50 (hFLT3): > 20 µM; hJAK2 LANCE IC50/EC50 (hJAK2): > 20 µM |
| CCCCCCCCCCOCC(O)CN (centres unmarked) [NCGC00166070-02] | > 20 | > 10 | > 10 | > 10 | > 10 | > 10 | 6.5465 | > 20 | > 10 | – |
| COC(=O)[C@H]1[C@H]2C[C@@H]3c4[nH]c5cc(OC)ccc5c4CCN3C[C@H]2C[C@@H](OC(=O)/C=C/c2ccc(O)c(OC)c2)[C@@H]1OC [NCGC00253604-01] | 10.4461 | > 10 | > 10 | > 10 | > 10 | > 10 | – | > 20 | – | hp70S6K1 LANCE IC50/EC50 (hp70S6K1 (RPS6KB1)): > 20 µM; hGSK3b LANCE IC50/EC50 (hGSK3b): > 20 µM; hKDR LANCE IC50/EC50 (hKDR): > 20 µM; hFLT3 LANCE IC50/EC50 (hFLT3): > 20 µM; hJAK2 LANCE IC50/EC50 (hJAK2): > 20 µM |
| CN1C[C@H](CNC(=O)OCc2ccccc2)C[C@@H]2c3cccc4c3c(cn4C)C[C@H]21 [NCGC00017257-14] | – | – | – | – | – | – | – | – | – | IC50/EC50, WntCondMedia_Alk Phos C2C12 (assay number 6) [1]: > 20 µM; IC50/EC50, 5mMGluc_INS1E SecretionMod (assay number 8) (INS-1E cells): > 33.33 µM; IC50/EC50, WntCondMedia_bCatenin C2C12 (assay number 5) [3]: > 20 µM |
| CCCCc1ccc2nc(NC(=O)OC)[nH]c2c1 [NCGC00016706-07] | – | – | – | – | – | – | – | – | – | IC50/EC50, WntCondMedia_Alk Phos C2C12 (assay number 6) [1]: 0.0682 µM; IC50/EC50, Hela CellCycMod PI 2N (assay number 14) (HeLa cells; 2N): 0.0104 µM; IC50/EC50, Hela CellCycMod PI 4N (assay number 16) (HeLa cells; 4N): 0.01062 µM; IC50/EC50, Hela CellCycMod PI Cell Number (assay number 18) (HeLa cells; Cell Number): 0.00566 µM; IC50/EC50, Hela CellCycMod PI MI (assay number 17) (HeLa cells; MI): 0.00717 µM; IC50/EC50, Hela CellCycMod PI S Phase (assay number 15) (HeLa cells; S Phase): > 10 µM; IC50/EC50, VEGF_ADSC\ECFC Angio CD31 TubeArea (assay number 2) [2]: 0.053 µM; IC50/EC50, WntCondMedia_bCatenin C2C12 (assay number 5) [3]: 0.0336 µM; IC50/EC50, VEGF_ADSC\ECFC Angio Hoechst NucArea (assay number 3) [4]: > 10 µM |
| COc1cccc2c1C(=O)c1c(O)c3c(c(O)c1C2=O)C[C@@](O)(C(=O)CO)C[C@@H]3O[C@H]1C[C@H](N)[C@H](O[C@@H]2CCCCO2)[C@H](C)O1 [NCGC00344543-01] | 3.9488 | 0.0795 | 1.746 | 0.08063 | > 10 | 0.05143 | 0.0063 | > 20 | 0.9949 | Basal_Viability ATP SW480 IC50/EC50 (SW480): 7.822 µM; Basal_Viability ATP RKO IC50/EC50 (RKO): 1.01 µM; Basal_Viability ATP Colo 320 IC50/EC50 (Colo320): 2.013 µM; Basal_Viability ATP SNU-C1 IC50/EC50 (SNU-C1): 9.2617 µM; Basal_Viability ATP HT-29 IC50/EC50 (HT-29): > 20 µM; GSK3b inh pretreated_Viability ATP HCT116 IC50/EC50 [5]: 1.275 µM; Basal_Viability ATP HCT116 IC50/EC50 (HCT116): 0.9107 µM; Basal_Viability ATP DLD-1 IC50/EC50 (DLD-1): 8.952 µM |
